Where two headings read alike, the source gives them in different places.
Assays:
[1] = system: human kidney cancer cells (A-498); experiment: MTT tumor cell proliferation inhibition test, A-498; type: cell-based; settings: read-out: Half Inhibitory Concentration IC50, A-498
Procedure: (§1) The compounds of the present invention were subjected to tumor cell proliferation inhibition test, and conventional MTT method was used.
(§2) Cell lines: human kidney cancer cells (A-498), human lung cancer cells (A-549), human brain astrocytoma cells (U-251). The culture medium was DMEM+15% NBS+double antibody.
(§3) Sample solution preparation: after dissolving with DMSO (Merck), PBS (−) was added to obtain 100 μmol/L solution or homogeneous suspension. The solution was diluted with PBS (−) in DMSO to a final concentration of 0.1, 1, 10, 20, 40, 60, 80, 100 μmol/L.
(§4) Gossypol was used as control solution, prepared under the same condition.
(§5) Cell culture: adherent growth Tumor cells were cultured in 1640 medium containing 10% inactivated neonatal bovine serum and penicillin, streptomycin (1 million U/L), placed in carbon dioxide incubator at 37° C., 5% CO2, and saturated humidity. Cells were treated serially passaged 2-3 times. The first culture was washed with PBS 2 times, and digested with trypsin. Fresh culture medium was added evenly, cells were adjusted to a appropriate concentration and transferred into a new culture flask. Cell in an exponential phase were chosen for the tests.
(§6) MTT Assay for Cell Viability and IC50 Determination:
(§7) Experimental Principle: Living cells mitochondria in the dehydrogenase can reduce yellow MTT to water-insoluble blue-violet product MT (MTT formazan), deposited in the cells. The amount of production is proportional to the number of living cells. […] DMSO can dissolve blue violet crystals, and the color depth is proportional to the amount contained, so the absorbance measured by the microplate reader can reflect the cell viability.
(§8) Methods: The exponential phase cells were digested and counted and seeded in 96-well plates at a density of 2×10^4/mL at 100 μl per well. After 24 hours of incubation, the cells to be tested were treated with 0.1, 1, 10, 20, 40, 60, 80, 100 μmol/L of the compounds. Each experimental group had 5 wells in each concentration, and the culture medium containing 0.4% DMSO was used as control. After 48 hours, the supernatant was discarded, and 100 μl of MTT ((2-(4,5-dimethyl-2-thiazolyl)-3,5-diphenyl-2H-[…]) (1 mg/mL) was added to each well. After another 4 hours, the supernatant was discarded, and 100 μl of DMSO was added to each well. After mixing, the absorbance was measured at 570 nm using a microplate reader. An IC50 calculation software was used to determine the half inhibitory concentration (IC50).

[2] = system: human lung cancer cells (A-549); experiment: MTT tumor cell proliferation inhibition test, A-549; type: cell-based; settings: read-out: Half Inhibitory Concentration IC50, A-549
Procedure: as §1, §2, §3, §4, §5, §6, §7, §8

[3] = system: human brain astrocytoma cells (U-251); experiment: MTT tumor cell proliferation inhibition test, U-251; type: cell-based; settings: read-out: Half Inhibitory Concentration IC50, U-251
Procedure: as §1, §2, §3, §4, §5, §6, §7, §8

[4] = system: tumor cells (A-498, A-549, U-251); experiment: MTT tumor cell proliferation inhibition test, summary in words over the cell lines tested; type: cell-based, human; settings: summary of Table 1
Procedure: as §1, §2, §8
These compounds can be used for the study of antitumor agents.

[5] = A498, A-498 cells, MTT, 48 hours treatment
[6] = A549, A-549 cells, MTT, 48 hours treatment
[7] = U-251 cells, MTT, 48 hours treatment

Row | Compound | IC50 [1, 5] | IC50 [2, 6] | IC50 [3, 7] | antitumor activities (statement in words) [4] | IC50 ([3]; U-251, 48 h) | IC50 ([1]; A498, 48 h) | IC50 ([2]; A549, 48 h)
1 | CC1=NN(c2ccc(C)cc2)C(=O)/C1=C\c1c(O)c(O)c(C(C)C)c2cc(C)c(-c3c(C)cc4c(C(C)C)c(O)c(O)c(C=O)c4c3O)c(O)c12 [B, (Z)-1,1′,6,6′,7,7′-hexahydroxy-5,5′-diisopropyl-3,3′-dimethyl-8′-((3-methyl-5-oxo-1-(p-tolyl)-1H-pyrazol-4(5H)-ylidene)methyl)-[2,2′-binaphthalene]-8-carbaldehyde] | 37.6 ± 2.23 µM | 78.4 ± 2.65 µM |  |  |  |  | 
2 | COc1ccc(N2N=C(C)/C(=C/c3c(O)c(O)c(C(C)C)c4cc(C)c(-c5c(C)cc6c(C(C)C)c(O)c(O)c(C=O)c6c5O)c(O)c34)C2=O)cc1 [C] | 25.3 ± 0.95 µM | > 100 µM | > 100 µM |  |  |  | 
3 | CC1=NN(c2ccccc2)C(=O)/C1=C\c1c(O)c(O)c(C(C)C)c2cc(C)c(-c3c(C)cc4c(C(C)C)c(O)c(O)c(C=O)c4c3O)c(O)c12 [Compound A, (Z)-1,1′,6,6′,7,7′-hexahydroxy-5,5′-diisopropyl-3,3′-dimethyl-8′-((3-methyl-5-oxo-1-phenyl-1H-pyrazol-4(5H)-ylidene)methyl)-[2,2′-binaphthalene]-8-carbaldehyde] |  |  |  | good antitumor activities in all three cell lines tested | 10.4 ± 0.67 µM | 11.4 ± 1.03 µM | 10.5 ± 0.92 µM
4 | C=CC1=NN(c2ccc(C)cc2)C(=O)/C1=C\c1c(O)c(O)c(C(C)C)c2cc(C)c(-c3c(C)cc4c(C(C)C)c(O)c(O)c(C=O)c4c3O)c(O)c12 [Compound I, (Z)-1,1′,6,6′,7,7′-hexahydroxy-5,5′-diisopropyl-3,3′-dimethyl-8′-((5-oxo-1-(p-tolyl)-3-vinyl-1H-pyrazol-4(5H)-ylidene)methyl)-[2,2′-binaphthalene]-8-carbaldehyde] | 11.7 ± 0.65 µM | 18.1 ± 0.72 µM | 20.7 ± 0.84 µM | good antitumor activities in different cell lines |  |  | 
5 | CC1=NN(c2ccc(Cl)cc2)C(=O)/C1=C\c1c(O)c(O)c(C(C)C)c2cc(C)c(-c3c(C)cc4c(C(C)C)c(O)c(O)c(C=O)c4c3O)c(O)c12 [D, (Z)-8′-((1-(4-chlorophenyl)-3-methyl-5-oxo-1H-pyrazol-4(5H)-ylidene)methyl)-1,1′,6,6′,7,7′-hexahydroxy-5,5′-diisopropyl-3,3′-dimethyl-[2,2′-binaphthalene]-8-carbaldehyde] | 24.3 ± 0.91 µM | 36.9 ± 0.83 µM | > 100 µM |  |  |  | 
6 | COC1=NN(c2ccccc2)C(=O)/C1=C\c1c(O)c(O)c(C(C)C)c2cc(C)c(-c3c(C)cc4c(C(C)C)c(O)c(O)c(C=O)c4c3O)c(O)c12 [E, (Z)-1,1′,6,6′,7,7′-hexahydroxy-5,5′-diisopropyl-8′-((3-methoxy-5-oxo-1-phenyl-1H-pyrazol-4(5H)-ylidene)methyl)-3,3′-dimethyl-[2,2′-binaphthalene]-8-carbaldehyde] | 17.8 ± 0.95 µM | 26.7 ± 1.12 µM | 26.1 ± 1.8 µM | good antitumor activities in different cell lines |  |  | 
7 | COC1=NN(c2ccc(OC)cc2)C(=O)/C1=C\c1c(O)c(O)c(C(C)C)c2cc(C)c(-c3c(C)cc4c(C(C)C)c(O)c(O)c(C=O)c4c3O)c(O)c12 [F] | > 100 µM | 65.9 ± 2.84 µM | 58.2 ± 2.1 µM |  |  |  | 
8 | COC1=NN(c2ccc(Cl)cc2)C(=O)/C1=C\c1c(O)c(O)c(C(C)C)c2cc(C)c(-c3c(C)cc4c(C(C)C)c(O)c(O)c(C=O)c4c3O)c(O)c12 [G, (Z)-8′-((1-(4-chlorophenyl)-3-methoxy-5-oxo-1H-pyrazol-4(5H)-ylidene)methyl)-1,1′,6,6′,7,7′-hexahydroxy-5,5′-diisopropyl-3,3′-dimethyl-[2,2′-binaphthalene]-8-carbaldehyde] | 26.5 ± 1.02 µM | 43.4 ± 1.21 µM | > 100 µM | good antitumor activities in different cell lines |  |  | 
9 | Cc1cc2c(C(C)C)c(O)c(O)c(C=O)c2c(O)c1-c1c(C)cc2c(C(C)C)c(O)c(O)c(C=O)c2c1O [Gossypol] | 11.3 ± 0.28 µM | 14.9 ± 0.64 µM | 20.2 ± 1.3 µM |  |  |  | 
10 | C=CC1=NN(c2ccccc2)C(=O)/C1=C\c1c(O)c(O)c(C(C)C)c2cc(C)c(-c3c(C)cc4c(C(C)C)c(O)c(O)c(C=O)c4c3O)c(O)c12 [H, (Z)-1,1′,6,6′,7,7′-hexahydroxy-5,5′-diisopropyl-3,3′-dimethyl-8′-((5-oxo-1-phenyl-3-vinyl-1H-pyrazol-4(5H)-ylidene)methyl)-[2,2′-binaphthalene]-8-carbaldehyde] | > 100 µM | > 100 µM | 78.7 ± 2.02 µM |  |  |  | 
11 | C=CC1=NN(c2ccc(Cl)cc2)C(=O)/C1=C\c1c(O)c(O)c(C(C)C)c2cc(C)c(-c3c(C)cc4c(C(C)C)c(O)c(O)c(C=O)c4c3O)c(O)c12 [J, (Z)-8′-((1-(4-chlorophenyl)-5-oxo-3-vinyl-1H-pyrazol-4(5H)-ylidene)methyl)-1,1′,6,6′,7,7′-hexahydroxy-5,5′-diisopropyl-3,3′-dimethyl-[2,2′-binaphthalene]-8-carbaldehyde] | 13.8 ± 0.85 µM | 12.7 ± 1.12 µM | 26.2 ± 1.15 µM | good antitumor activities in different cell lines |  |  | 
12 | CC1=NN(c2c(C)cccc2Cl)C(=O)/C1=C\c1c(O)c(O)c(C(C)C)c2cc(C)c(-c3c(C)cc4c(C(C)C)c(O)c(O)c(C=O)c4c3O)c(O)c12 [K, (Z)-8′-((1-(2-chloro-6-methylphenyl)-3-methyl-5-oxo-1H-pyrazol-4(5H)-ylidene)methyl)-1,1′,6,6′,7,7′-hexahydroxy-5,5′-diisopropyl-3,3′-dimethyl-[2,2′-binaphthalene]-8-carbaldehyde] |  |  |  |  | 11.5 ± 1.32 µM | > 100 µM | > 100 µM
13 | C=CC1=NN(c2c(C)cccc2Cl)C(=O)/C1=C\c1c(O)c(O)c(C(C)C)c2cc(C)c(-c3c(C)cc4c(C(C)C)c(O)c(O)c(C=O)c4c3O)c(O)c12 [L, (Z)-8′-((1-(2-chloro-6-methylphenyl)-5-oxo-3-vinyl-1H-pyrazol-4(5H)-ylidene)methyl)-1,1′,6,6′,7,7′-hexahydroxy-5,5′-diisopropyl-3,3′-dimethyl-[2,2′-binaphthalene]-8-carbaldehyde] | > 100 µM | > 100 µM | > 100 µM |  |  |  | 

From US9758486B1 (priority 2017, dated 2017)
